Values after ≈ are worked out from the molar mass of the structure shown. Each block holds one compound with its values, some of them ahead of it.
How the values were obtained:
[1] = test system: Staphylococcus aureus; assay: Antibacterial activity against fluoroquinolone-resistant Staphylococcus aureus harboring DNA gyrase D83N mutant; format: functional
[2] = test system: Staphylococcus aureus; assay: Antibacterial activity against fluoroquinolone-resistant Staphylococcus aureus harboring DNA gyrase M121K mutant; format: functional
[3] = test system: Staphylococcus aureus; assay: Antibacterial activity against fluoroquinolone-resistant Staphylococcus aureus 1095; format: functional
[4] = target: DNA gyrase (Staphylococcus aureus, UniProt P0A0K8+P20831); assay: Inhibition of Staphylococcus aureus DNA gyrase; format: protein-complex assay
[5] = Inhibition of Staphylococcus aureus DNA topoisomerase 4
[6] = test system: Staphylococcus aureus; assay: Antibacterial activity against Staphylococcus aureus 1146; format: functional
[7] = test system: Staphylococcus aureus; assay: Antibacterial activity against fluoroquinolone-resistant Staphylococcus aureus 1095 infected in mouse assessed as survival compound administered 0.5 to 4 hrs post-infection measured after 7 days; format: functional; settings: read-out: PD50
[8] = test system: Streptococcus pyogenes; assay: Antibacterial activity against Streptococcus pyogenes; format: functional
[9] = Clearance in rat at 2 mg/kg, iv and 5 mg/kg, po; format: ADME, organism-based; settings: in vivo
[10] = test system: Staphylococcus aureus; assay: Antibacterial activity against Staphylococcus aureus; format: functional
[11] = Inhibition of human DNA topoisomerase 4
[12] = target: Voltage-gated inwardly rectifying potassium channel KCNH2 (Homo sapiens, UniProt Q12809); assay: Inhibition of human ERG channel in HEK293 cells by voltage-gated patch clamp technique; format: cell-based
Sequence of Voltage-gated inwardly rectifying potassium channel KCNH2 (Q12809 whole entry): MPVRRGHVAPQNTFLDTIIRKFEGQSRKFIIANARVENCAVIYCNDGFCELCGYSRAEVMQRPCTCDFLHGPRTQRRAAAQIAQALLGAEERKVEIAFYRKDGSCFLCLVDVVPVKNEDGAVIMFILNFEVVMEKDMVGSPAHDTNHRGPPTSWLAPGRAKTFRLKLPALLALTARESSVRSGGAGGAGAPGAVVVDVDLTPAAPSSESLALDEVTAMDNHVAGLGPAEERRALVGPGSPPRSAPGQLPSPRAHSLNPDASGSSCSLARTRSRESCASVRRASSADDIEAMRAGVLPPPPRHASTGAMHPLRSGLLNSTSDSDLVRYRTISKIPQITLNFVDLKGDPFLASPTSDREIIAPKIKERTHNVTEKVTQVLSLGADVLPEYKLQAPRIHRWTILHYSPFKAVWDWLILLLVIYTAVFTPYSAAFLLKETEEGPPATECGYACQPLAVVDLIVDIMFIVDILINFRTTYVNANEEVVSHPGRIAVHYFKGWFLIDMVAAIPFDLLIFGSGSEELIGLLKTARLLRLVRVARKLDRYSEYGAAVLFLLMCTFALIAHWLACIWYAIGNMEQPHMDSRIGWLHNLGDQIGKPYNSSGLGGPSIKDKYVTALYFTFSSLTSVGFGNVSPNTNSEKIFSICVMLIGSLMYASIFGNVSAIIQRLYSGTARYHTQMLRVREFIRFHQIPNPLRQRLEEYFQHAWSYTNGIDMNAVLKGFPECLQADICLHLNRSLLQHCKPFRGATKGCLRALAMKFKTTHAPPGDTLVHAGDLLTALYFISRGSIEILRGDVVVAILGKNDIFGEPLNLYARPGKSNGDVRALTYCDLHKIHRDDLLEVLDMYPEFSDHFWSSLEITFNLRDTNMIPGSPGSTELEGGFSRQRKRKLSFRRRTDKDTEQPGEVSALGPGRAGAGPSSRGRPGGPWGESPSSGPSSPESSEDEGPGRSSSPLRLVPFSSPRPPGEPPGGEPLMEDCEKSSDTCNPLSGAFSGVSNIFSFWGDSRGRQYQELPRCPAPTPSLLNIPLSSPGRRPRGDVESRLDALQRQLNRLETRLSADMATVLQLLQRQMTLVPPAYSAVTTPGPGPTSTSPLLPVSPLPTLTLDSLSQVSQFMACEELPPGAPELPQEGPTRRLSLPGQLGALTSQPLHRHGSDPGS

[13] = Volume of distribution at steady state in rat at 2 mg/kg, iv and 5 mg/kg, po; format: ADME, organism-based; settings: in vivo, read-out: Vdss
[14] = Oral bioavailability in rat at 5 mg/kg; format: ADME, organism-based; settings: in vivo
[15] = Inhibition of Streptococcus pneumoniae topoisomerase 4
[16] = Inhibition of Streptococcus pneumoniae DNA gyrase
[17] = test system: Streptococcus pyogenes; assay: Antibacterial activity against Streptococcus pyogenes 02C0203 infected in mouse assessed as survival compound administered 0.5 to 4 hrs post-infection measured after 7 days; settings: 02C0203, in Mus musculus, read-out: PD50

SMILES: COc1ccc2nccc([C@@H](O)CC[C@@H]3CCN(C4CC(c5cc(F)cc(F)c5OC)C4)C[C@@H]3C(=O)O)c2c1 (some centres undefined)
MIC [1]: 32 µg/mL (≈ 59.2 µM)
MIC [2]: 64 µg/mL (≈ 118 µM)
MIC [3]: 2 µg/mL (≈ 3.7 µM)
IC50 [4]: 6.25 µM
IC50 [5]: 60 µM
MIC [6]: 0.5 µg/mL (≈ 0.925 µM)

SMILES: COc1ccc2nccc([C@@H](O)CC[C@@H]3CCN(C4CC(c5cc(F)c(OC)cc5F)C4)C[C@@H]3C(=O)O)c2c1 (some centres undefined)
MIC [1]: > 64 µg/mL
MIC [2]: > 64 µg/mL
MIC [3]: > 64 µg/mL
IC50 [4]: 50 µM
IC50 [5]: 240 µM
MIC [6]: 32 µg/mL (≈ 59.2 µM)

SMILES: COc1ccc2ncc(F)c([C@@H](O)CC[C@@H]3CCN(CCSc4cccs4)C[C@@H]3C(=O)O)c2c1
ED50 [7]: 22.1 mg/kg
MIC90 [8]: 0.25 µg/mL (≈ 0.495 µM)
clearance [9]: 32.7 mL/min/kg
MIC90 [10]: 0.125 µg/mL (≈ 0.248 µM)
MIC [1]: 32 µg/mL (≈ 63.4 µM)
MIC [2]: 64 µg/mL (≈ 127 µM)
MIC [3]: 0.125 µg/mL (≈ 0.248 µM)
IC50 [4]: 1.56 µM
IC50 [5]: 30.4 µM
IC50 [11]: > 200 µM
MIC [6]: ≤ 0.063 µg/mL
IC50 [12]: 23.6 µM
Vd [13]: 2.55 L/kg
bioavailability [14]: 31.5%

SMILES: COc1ccc2nccc([C@@H](O)CC[C@@H]3CCN(C4CC(c5c(F)ccc(F)c5OC)C4)C[C@@H]3C(=O)O)c2c1 (some centres undefined)
MIC [1]: 64 µg/mL (≈ 118 µM)
MIC [2]: > 64 µg/mL
MIC [3]: ≤ 0.0625 µg/mL
IC50 [4]: 3.13 µM
IC50 [5]: 25 µM
MIC [6]: ≤ 0.0625 µg/mL

SMILES: COc1ccc2nccc([C@@H](O)CC[C@@H]3CCN(C4CC(c5cc(F)cc(F)c5)C4)C[C@@H]3C(=O)O)c2c1 (some centres undefined)
MIC [1]: 8 µg/mL (≈ 15.7 µM)
MIC [2]: 8 µg/mL (≈ 15.7 µM)
MIC [3]: 0.25 µg/mL (≈ 0.49 µM)
IC50 [4]: 1.56 µM
IC50 [5]: 15 µM
MIC [6]: ≤ 0.0625 µg/mL
IC50 [12]: 7.18 µM

IC50 [11]: 150 µM
IC50 [15]: 7.5 µM
IC50 [16]: 50 µM
MIC [6]: 1 µg/mL
SMILES: COc1ccc2nccc(C(O)CC[C@@H]3CCN(C[C@@H]4C[C@H]4c4ccccc4)C[C@@H]3C(=O)O)c2c1 (mixture of isomers)

SMILES: COc1ccc2nccc([C@@H](O)CC[C@@H]3CCN(CCSc4cccs4)C[C@@H]3C(=O)O)c2c1
ED50 [7]: 34.7 mg/kg
MIC [1]: > 64 µg/mL
MIC [2]: > 64 µg/mL
MIC [3]: 0.1 µg/mL (≈ 0.205 µM)
IC50 [4]: 2.42 µM
IC50 [5]: 84.6 µM
IC50 [11]: > 200 µM
IC50 [15]: 6.54 µM
IC50 [16]: 5.85 µM
MIC [6]: 0.068 µg/mL (≈ 0.14 µM)

SMILES: COc1ccc2nccc([C@@H](O)CC[C@@H]3CCN(C4CC(c5ccc(F)cc5F)C4)C[C@@H]3C(=O)O)c2c1 (some centres undefined)
MIC [1]: 64 µg/mL (≈ 125 µM)
MIC [2]: 64 µg/mL (≈ 125 µM)
MIC [3]: 0.25 µg/mL (≈ 0.49 µM)
IC50 [4]: 9.4 µM
IC50 [5]: 60 µM
MIC [6]: ≤ 0.0625 µg/mL

SMILES: COc1ccc2nccc([C@@H](O)CC[C@@H]3CCN(C4CC(c5ccc(F)c(F)c5F)C4)C[C@@H]3C(=O)O)c2c1 (some centres undefined)
MIC [1]: > 64 µg/mL
MIC [2]: > 64 µg/mL
MIC [3]: 0.5 µg/mL (≈ 0.946 µM)
IC50 [4]: 3.13 µM
IC50 [5]: 110 µM
MIC [6]: ≤ 0.0625 µg/mL

SMILES: COc1ccc2nccc([C@@H](O)CC[C@@H]3CCN(C4CC(c5cc(F)c(F)cc5F)C4)C[C@@H]3C(=O)O)c2c1 (some centres undefined)
MIC [1]: 32 µg/mL (≈ 60.5 µM)
MIC [2]: 64 µg/mL (≈ 121 µM)
IC50 [4]: 1.56 µM
IC50 [5]: 37 µM
MIC [6]: ≤ 0.0625 µg/mL

SMILES: COc1ccc2nccc(C(O)CC[C@@H]3CCN(C/C=C/c4cc(F)ccc4F)C[C@@H]3C(=O)O)c2c1 (some centres undefined)
MIC [1]: 10 µg/mL (≈ 20.1 µM)
MIC [2]: 13 µg/mL (≈ 26.2 µM)
MIC [3]: 0.5 µg/mL (≈ 1.01 µM)
IC50 [4]: 7.66 µM
IC50 [5]: 8.84 µM
IC50 [11]: 100 µM
IC50 [15]: 3.75 µM
IC50 [16]: 6.25 µM
MIC [6]: 0.25 µg/mL (≈ 0.503 µM)

SMILES: COc1ccc2nccc([C@@H](O)CC[C@@H]3CCN(C4CC(c5cc(F)ccc5F)C4)C[C@@H]3C(=O)O)c2c1 (some centres undefined)
ED50 [7]: 28.2 mg/kg
MIC90 [8]: 1 µg/mL (≈ 1.96 µM)
clearance [9]: 43.9 mL/min/kg
MIC90 [10]: 0.25 µg/mL (≈ 0.49 µM)
MIC [1]: 10 µg/mL (≈ 19.6 µM)
MIC [2]: 5.7 µg/mL (≈ 11.2 µM)
MIC [3]: 0.5 µg/mL (≈ 0.979 µM)
IC50 [4]: 3 µM
IC50 [5]: 9.62 µM
MIC [6]: 0.25 µg/mL (≈ 0.49 µM)
IC50 [12]: 9.97 µM
ED50 [17]: 32.5 mg/kg
Vd [13]: 1.3 L/kg
bioavailability [14]: 47%

SMILES: COc1ccc2nccc([C@@H](O)CC[C@@H]3CCN(C4CC(c5cccc(F)c5)C4)C[C@@H]3C(=O)O)c2c1 (some centres undefined)
MIC [1]: 32 µg/mL (≈ 65 µM)
MIC [2]: 32 µg/mL (≈ 65 µM)
MIC [3]: 0.125 µg/mL (≈ 0.254 µM)
IC50 [4]: 1.56 µM
IC50 [5]: 38 µM
MIC [6]: ≤ 0.0625 µg/mL

Reference: ChEMBL document CHEMBL2380208, “Novel quinoline derivatives as inhibitors of bacterial DNA gyrase and topoisomerase IV” (Bioorg Med Chem Lett, 2013)
